Several values for one entry are separate records, joined by “and”; a condition that tells them apart may be missing. Equal entries are not always repeated.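 Values below derive from 48-hour exposures of cells grown in 96-well plates, with endpoints linearly interpolated between the two concentrations bracketing the appropriate inhibition level. GI50 = concentration required for 50% inhibition of growth. TGI is the concentration that stops growth completely.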

The source of these data is PubChem BioAssay (NCI).

Some test systems named below: HOP-18 NSCLC; KM20L2 colon; LXFL 529 NSCLC; DMS 273 small cell lung; RXF-631 renal; DLD-1 colon; M19-MEL melanoma; XF 498 CNS; MDA-N; P388 leukemia.
What all share (assay): NCI tumour cell line growth inhibition, 48 h

In the case of `COc1cccc(N2C(=O)c3c(c4[nH]c5ccccc5c4c4ccc(C(C)(C)C)cc34)C2=O)c1`, the TGI in the assay on HOP-18 NSCLC, with KM20L2 colon, in the assay on LXFL 529 NSCLC, with DMS 273 small cell lung, in the assay on RXF-631 renal and with DLD-1 colon was greater than 100 µM each time. The TGI in the assay with M19-MEL melanoma and in the assay with XF 498 CNS was greater than 100 µM throughout.
For `C/C(=N\N=C(N)N)C(CN(CC(C)C)CC(C)C)C(=O)Nc1ccc(C)cc1C` (centres undefined), the TGI in the assay on HOP-18 NSCLC, with KM20L2 colon, with LXFL 529 NSCLC, with DMS 273 small cell lung, in the assay with RXF-631 renal and with DLD-1 colon was greater than 100 µM throughout. Further, the TGI with M19-MEL melanoma and in the assay with XF 498 CNS was greater than 100 µM each time.
Regarding `CC(C)(C)NNC(=O)/C(=C/c1ccc(Oc2ccc(Cl)c(Cl)c2)cc1)NC(=O)c1ccccc1`, the TGI with HOP-18 NSCLC was greater than 100 µM; with KM20L2 colon, greater than 100 µM; with LXFL 529 NSCLC, greater than 100 µM; with DMS 273 small cell lung, 58.3 µM; in the assay on RXF-631 renal, greater than 100 µM; with DLD-1 colon, greater than 100 µM. Moreover, the TGI in the assay with M19-MEL melanoma and in the assay with XF 498 CNS was greater than 100 µM in each case.
Take `Cc1[nH]c(=O)[nH]c(=O)c1N(CCF)CCCl`: the GI50 in the assay with HOP-18 NSCLC is 401 µM and 719 µM and 415 µM; in the assay on KM20L2 colon, 194 µM and 429 µM; in the assay with DMS 273 small cell lung it was 113 µM and 122 µM and 189 µM; in the assay on DLD-1 colon it was 303 µM and 472 µM; in the assay on P388 leukemia, 190 µM and 58.3 µM and 223 µM; with XF 498 CNS, 334 µM and 198 µM. Further, the TGI was 927 µM and 2060 µM and 1190 µM in the assay with HOP-18 NSCLC; 828 µM in the assay on MDA-N; 455 µM and 1280 µM and 619 µM in the assay on KM20L2 colon; 330 µM and 470 µM and 560 µM in the assay with DMS 273 small cell lung; 1250 µM and 1290 µM and 830 µM in the assay on DLD-1 colon; 485 µM and 1330 µM and 791 µM in the assay with P388 leukemia. In addition, the TGI in the assay with XF 498 CNS was 679 µM and 554 µM.
`O=C1NC(=O)C(C(=O)C(=O)Nc2ccc(Br)cc2)C(=O)N1`: the TGI in the assay with HOP-18 NSCLC, with KM20L2 colon, in the assay with LXFL 529 NSCLC, in the assay with DMS 273 small cell lung, in the assay with RXF-631 renal and in the assay with DLD-1 colon was greater than 100 µM in each case. Further, the TGI with M19-MEL melanoma and with XF 498 CNS was greater than 100 µM each time.
`CC1=CC=NN2C(=O)[C@H](C)C2C1` (some centres undefined): the TGI with HOP-18 NSCLC, in the assay with KM20L2 colon, with LXFL 529 NSCLC, in the assay on DMS 273 small cell lung, in the assay with RXF-631 renal and in the assay with DLD-1 colon was greater than 100 µM throughout. The TGI in the assay on M19-MEL melanoma and with XF 498 CNS was greater than 100 µM in each case.
Regarding `Cn1ncc(=S)[nH]c1=S`, the TGI in the assay with HOP-18 NSCLC, in the assay on KM20L2 colon, in the assay on LXFL 529 NSCLC, in the assay with DMS 273 small cell lung, in the assay with RXF-631 renal and in the assay with DLD-1 colon was greater than 100 µM in each case. Also, the TGI with M19-MEL melanoma and with XF 498 CNS was greater than 100 µM in each case.
Turning to `O=C(CCN1CCN(c2cccc(Cl)c2)CC1)N1CCc2c([nH]c3ccccc23)C1c1cccnc1` (centres undefined), the TGI with HOP-18 NSCLC was 32.5 µM; in the assay on KM20L2 colon, 20.1 µM; with LXFL 529 NSCLC, 19.6 µM; with DMS 273 small cell lung it was 19.1 µM; with RXF-631 renal it was greater than 100 µM; with DLD-1 colon, 25.4 µM. The TGI in the assay with M19-MEL melanoma is 26.4 µM; in the assay on XF 498 CNS, 9.57 µM. Moreover, the GI50 with KM20L2 colon was 4.71 µM; in the assay on LXFL 529 NSCLC, 6.24 µM; in the assay with DMS 273 small cell lung it was 6.6 µM; with RXF-631 renal, 8.64 µM; with DLD-1 colon, 8.09 µM.
Take `CCC/C(=N\NC(=S)N1CCN(c2ccccn2)CC1)c1ccccn1`: the GI50 with HOP-18 NSCLC is 0.0316 µM; in the assay with RXF-631 renal it was 0.0384 µM; in the assay on M19-MEL melanoma, 0.0534 µM. Besides, the TGI in the assay with HOP-18 NSCLC is 0.68 µM and 1.15 µM; with MDA-N, 1.92 µM; in the assay on KM20L2 colon, 1.58 µM; with LXFL 529 NSCLC, 0.0757 µM and 0.241 µM; in the assay on DMS 273 small cell lung, 1.37 µM and 1.42 µM; in the assay on RXF-631 renal it was > 10 µM and 2.34 µM. Further, the TGI in the assay on DLD-1 colon is 1.33 µM and 1.34 µM; with M19-MEL melanoma, 1.32 µM and 1.74 µM; in the assay on XF 498 CNS it was 0.302 µM.
`C/C(CN1C(=O)c2ccccc2C1=O)=N\NS(=O)(=O)c1cccc([N+](=O)[O-])c1`: the TGI with HOP-18 NSCLC, with KM20L2 colon, in the assay on LXFL 529 NSCLC, in the assay on DMS 273 small cell lung, in the assay with RXF-631 renal and in the assay with DLD-1 colon was greater than 100 µM in each case. The TGI in the assay with M19-MEL melanoma and in the assay on XF 498 CNS was greater than 100 µM throughout.
